Reference: patent publication US10064804B2, “Polymeric nitrones and their use in personal care” (Dow Global Technologies LLC, priority 2014, dated 2018)

Assay: Oxygen Radical Absorbance Capacity (ORAC) antioxidant potential
Conditions: ORAC test, test solutions at 100 micromolar; calculated from ORAC values relative to Trolox
Experimental: Antioxidant potential is evaluated using the Oxygen Radical Absorbance Capacity (ORAC) protocol. ORAC is a chemical in-vitro method based on the hydrogen atom transfer (HAT) mechanism (see N. Re et al., Free Radical Biology & Medicine, 26 (9/10), 1231 (1997)). ORAC measures antioxidant inhibition of peroxyl radical induced oxidations and thus reflects classical radical chain breaking antioxidant activity by H atom transfer. In this assay, the peroxyl radical reacts with a fluorescent probe to form a non-fluorescent product. This is quantitated using a fluorescence measurement. Antioxidant capacity is determined by decreased rate and amount of product formed over time. This assay depends upon the free radical damage to the fluorescent probe resulting in the change in its fluorescence intensity. The change of fluorescence intensity is an indicator of the degree of free radical damage. In the presence of an antioxidant, the inhibition of free radical damage is reflected in higher fluorescence intensity and can be measured as antioxidant capacity against the free radicals. The uniqueness of ORAC assay is that the reaction is driven to completion. This allows calculation of the area under the curve (AUC) and gives an absolute quantitation of antioxidancy as opposed to relative measurements in many other assays.
As noted, the longer it takes to observe a decrease in fluorescence, the higher the antioxidant (AO) potential. From the AUC for a given antioxidant, the AUC for blank is subtracted to give its ORAC value. The concentration of AO needed to give the same AUC values as Trolox is calculated and used to represent the Trolox equivalent AO Capacity (TEAC). Trolox is ((±)-6-Hydroxy-2,5,7,8-tetramethylchromane-2-carboxylic acid, CAS #53188-07-1), and is used as an internal control. […]
The inventive stilbene-pendant nitrones in the ORAC test solutions were at a concentration of 100 micromolar, while the concentrations of Trolox, Vitamin C, Vitamin E, BHT, PBN+BHT, and VAL-IPHA were at 100 micromolar. The TEAC values calculated from the ORAC values are listed the Table 2.

Compound	TEAC (Trolox equivalent AO Capacity)
CC(C)(C)/[N+]([O-])=C/c1ccccc1 [PBN, 2-Phenyl-N-tert-butylnitrone]	not very high
O=C1O[C@H]([C@@H](O)CO)C(O)=C1O [Vitamin C]	0.76
Vitamin E	0.13
